The target of the assay is Apoptosis regulator Bcl-2 (Homo sapiens, UniProt P10415). Nature of the assay: Binding Assay.
Sequence of Apoptosis regulator Bcl-2 (P10415 whole entry): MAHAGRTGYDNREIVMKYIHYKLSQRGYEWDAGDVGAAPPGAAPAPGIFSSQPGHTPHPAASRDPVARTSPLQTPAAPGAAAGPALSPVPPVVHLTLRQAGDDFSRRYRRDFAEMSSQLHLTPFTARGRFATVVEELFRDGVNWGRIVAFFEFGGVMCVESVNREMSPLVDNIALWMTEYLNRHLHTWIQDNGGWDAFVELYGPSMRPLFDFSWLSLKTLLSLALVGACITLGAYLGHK

Procedure: Table 1: Binding to Bcl-2 proteins Bcl-2, and Bcl-XL was assessed using the Bcl2scan platform: T7 phage strains displaying BCL2 proteins were grown in parallel in 24-well blocks in an E. coli host derived from the BL21 strain. E. coli were grown to log-phase and infected with T7 phage from a frozen stock (multiplicity of infection=0.4) and incubated with shaking at 32° C. until lysis (90-150 minutes). The lysates were centrifuged (5,000×g) and filtered (0.2 μm) to remove cell debris. […] The liganded beads were blocked with excess biotin and washed with blocking buffer (SeaBlock (Pierce), 1% BSA, 0.05% Tween 20, 1 mM DTT) to remove unbound ligand and to reduce non-specific phage binding. […] Test compounds were prepared as 100× stocks in 100% DMSO. Kds were determined using an 11-point 3-fold compound dilution series with one DMSO control point. […] The compounds were then diluted directly into the assays such that the final concentration of DMSO was 0.9%. All reactions performed in polypropylene 384-well plates. Each was a final volume of 0.02 ml.

One may read the Kd as the free concentration of one partner at which half of the binding sites on the other are occupied at equilibrium, for simple one-to-one binding. A lower Kd goes with a tighter complex. In the case of `CCC12CC(C3=C(CN4CCN(c5ccc(C(=O)NS(=O)(=O)c6ccc(OCC7(F)CCOCC7)c([N+](=O)O)c6)c(Oc6cnc7[nH]ccc7c6)c5)CC4)CCC(C)(C)C3)(C1)C2` [US11344546, Example 26], the Kd is < 10 nM.

Values taken from BindingDB's records for patent US11344546 (Recurium Ip Holding, 2022).
